This is an account of results in patent US10883088B2, “Biological upgrading of hydrocarbon streams with oxygenases” (priority 2017, dated 2021).

Assay [1] has as its system HmuO. Nature of the assay: UV-VIS Soret band screen of model porphyrins with HmuO. The format is biochemical, C. jeikeium. The following applies: porphyrin treated with HmuO; UV-VIS absorbance, room temperature; shift vs Control indicates protein-porphyrin interaction. An excerpt:
(§1) A shift in the wavelength of maximal absorbance, commonly referred to as the “Soret band,” indicates a change in porphyrin conformation or a protein-porphyrin interaction.
(§2) To prepare crude protein, aliquots were thawed on ice and diluted 4-fold with protein assay buffer (PAB). To isolate purified oxygenases, protein aliquots were thawed on ice and proteins of interest were purified by HIS-tag-Ni-NTA column affinity followed by size exclusion chromatography with PD-10 desalting columns. Purified protein was eluted in PAB, collected in the first 2 mL PD-10 column flow-through fraction. Relative to the initial protein concentration, samples were diluted 4-fold to parallel crude protein samples.
(§3) Model porphyrin stocks were prepared in porphyrin phosphate buffer (PPB), stored at 4° C. in amber bottles to protect samples from light, and used or discarded within one month.
(§4) Amber tubes were used for all assays to protect samples from light. Crude and purified protein samples were combined with porphyrin substrates, to achieve final concentrations in Table 4, and total assay volumes were raised to 10 mL with Tris buffer. Absorbance of a 2.4 mL sample was measured in a 1 cm quartz cuvette, at room temperature, 1 nm resolution, and 0.7 sec. integration time on an Evolution201® UV-VIS spectrophotometer with Thermo INSIGHT® software. Samples were incubated for 24 hrs. at room temperature and 75 RPM and their final UV-VIS absorbance spectra was measured.

Assay [2] deals with ChuS. Nature of the assay: UV-VIS Soret band screen of model porphyrins with ChuS. The following applies: porphyrin treated with ChuS; UV-VIS absorbance, room temperature; shift vs Control indicates protein-porphyrin interaction. The format is biochemical, E. coli.
Excerpt: (§5) UV-VIS spectroscopy was used for initial screening of protein activity against numerous model compounds because each model porphyrin has a characteristic UV-VIS absorbance spectrum. A shift in the wavelength of maximal absorbance, commonly referred to as the “Soret band,” indicates a change in porphyrin conformation or a protein-porphyrin interaction.
as §2, §3
as §4, with “measured. An absorbance baseline was collected using Tris buffer at the beginning of each time point and ≤1% error was observed between technical replicates. Crude, empty pET28b vector (EV) strain lysate protein and PAB only controls were run in parallel with experimental samples (EXP) for each porphyrin.” for “measured.”

Assay [3] deals with T1, HugZ (Helicobacter pylori, UniProt O25087).
T1 construct: Expression plasmids were constructed by inserting the gene for each oxygenase into the base vector pET28b; His-tag (N); made in house; host or cells: E. coli BL21-DE3(T1), pET28b
Nature of the assay: UV-VIS Soret band screen of model porphyrins with HugZ. The format is biochemical, H. pylori. The following applies: porphyrin treated with HugZ; UV-VIS absorbance, room temperature; shift vs Control indicates protein-porphyrin interaction.
Excerpt: as §5, §2, §3
as §4, with “measured. An absorbance baseline was collected using Tris buffer at the beginning of each time point and ≤1% error was observed between technical replicates. Crude, empty pET28b vector (EV) strain lysate protein and PAB only controls were run in parallel with experimental samples (EXP) for each porphyrin.” for “measured.”

For assay [4], the target named is T2, PigA (Pseudomonas aeruginosa, UniProt G3XCZ8).
T2 construct: Expression plasmids were constructed by inserting the gene for each oxygenase into the base vector pET28b; His-tag (N); made in house; host or cells: E. coli BL21-DE3(T1), pET28b
Put plainly: UV-VIS Soret band screen of model porphyrins with PigA. The note with it: porphyrin treated with PigA; UV-VIS absorbance, room temperature; shift vs Control indicates protein-porphyrin interaction. In kind it is biochemical, P. aeruginosa.
Excerpt: as §1, §2, §3, §4

Assay [5] addresses T3, IsdI (Staphylococcus aureus, UniProt Q99X56).
T3 construct: Expression plasmids were constructed by inserting the gene for each oxygenase into the base vector pET28b; His-tag (N); made in house; host or cells: E. coli BL21-DE3(T1), pET28b
Nature of the assay: UV-VIS Soret band screen of model porphyrins with IsdI. In kind it is biochemical, S. aureus. The note with it: porphyrin treated with IsdI; UV-VIS absorbance, room temperature; shift vs Control indicates protein-porphyrin interaction.
Excerpt: as §5, §2, §3
as §4, with “measured. An absorbance baseline was collected using Tris buffer at the beginning of each time point and ≤1% error was observed between technical replicates. Crude, empty pET28b vector (EV) strain lysate protein and PAB only controls were run in parallel with experimental samples (EXP) for each porphyrin.” for “measured.”

Assay [6] has as its target T4, IsdG (Staphylococcus aureus, UniProt Q99UW8).
T4 construct: Expression plasmids were constructed by inserting the gene for each oxygenase into the base vector pET28b; His-tag (N); made in house; host or cells: E. coli BL21-DE3(T1), pET28b
Put plainly: UV-VIS Soret band screen of model porphyrins with IsdG. In kind it is biochemical, S. aureus. The note with it: porphyrin treated with IsdG; UV-VIS absorbance, room temperature; shift vs Control indicates protein-porphyrin interaction.
Excerpt: as §5, §2, §3
as §4, with “measured. An absorbance baseline was collected using Tris buffer at the beginning of each time point and ≤1% error was observed between technical replicates. Crude, empty pET28b vector (EV) strain lysate protein and PAB only controls were run in parallel with experimental samples (EXP) for each porphyrin.” for “measured.”

For `C[n+]1ccc(-c2c3nc(c(-c4cc[n+](C)cc4)c4ccc([n-]4)c(-c4cc[n+](C)cc4)c4nc(c(-c5cc[n+](C)cc5)c5ccc2[n-]5)C=C4)C=C3)cc1.[Cl-].[Cl-].[Cl-].[Cl-].[Ni+2]` [Ni(II)-meso-tetra-(Nmethyl-4-pyridyl) porphine tetrachloride], the Soret band wavelength in assay [1] and in assay [2] was 440 nm throughout.
With `C[n+]1ccc(-c2c3nc(c(-c4cc[n+](C)cc4)c4ccc([n-]4)c(-c4cc[n+](C)cc4)c4nc(c(-c5cc[n+](C)cc5)c5ccc2[n-]5)C=C4)C=C3)cc1.[Cl-].[Cl-].[Cl-].[Cl-].[O]=[V+2]` [VO-meso-tetra-(N-methyl-4-pyridyl), VO-meso-tetra-(N-methyl-4-pyridyl) porphine tetrachloride], the Soret band wavelength in assay [1] and in assay [2] was 422 nm in each case.
As to `O=C(O)c1ccc(-c2c3nc(c(-c4ccc(C(=O)O)cc4)c4ccc([n-]4)c(-c4ccc(C(=O)O)cc4)c4nc(c(-c5ccc(C(=O)O)cc5)c5ccc2[n-]5)C=C4)C=C3)cc1.[Ni+2]` [Ni(II)-meso-tetra-(4-carboxyphenyl) porphine], the Soret band wavelength in assay [1] is 405 nm; in assay [2], 410/405; in assay [3], 400 nm; in assay [4], 404 nm; in assay [5], 400 nm; in assay [6], 400 nm.
With “Fe(III)-meso-tetra-(4-carboxyphenyl) porphine chloride”, the Soret band wavelength in assay [1] is 417 nm; in assay [2], 424/420; in assay [3], 418 nm; in assay [4], 414 nm; in assay [5] it was 410 nm; in assay [6] it was 410 nm.
For hemin, the Soret band wavelength in assay [1] was 399 nm; in assay [2] it was 405/400; in assay [3], 405 nm; in assay [4], 400 nm; in assay [5] it was 390 nm; in assay [6], 390 nm.
With `C=CC1=C(C)c2cc3[n-]c(cc4[n-]c(cc5nc(cc1n2)C(C)=C5C=C)c(C)c4CCC(=O)[O-])c(CCC(=O)[O-])c3C.[H+].[H+].[Ni+2]` [Ni(II)-protoporphyrin (IX)], the Soret band wavelength was found to be 400 nm in assay [1]; 400 nm in assay [2]; 417 nm in assay [3]; 400 nm in assay [4]; 400 nm in assay [5]; 400 nm in assay [6].
